Assay: xn = mol fraction of the nth substance listed
Conditions: 101 kPa

CCCOCCO + CCCC[n+]1ccn(C)c1.F[P-](F)(F)(F)(F)F
speed of sound [m/s]
Conditions	x1 = 0.1468	x1 = 0.1945	x1 = 0.3063	x1 = 0.3953	x1 = 0.5119	x1 = 0.6168	x1 = 0.702	x1 = 0.8043	x1 = 0.8873	x1 = 1
298.15 K	1431.8	1427.1	1414	–	1384.2	1366.5	–	1331.5	1316.4	–
303.15 K	1419	1414	–	1387.9	1369.3	1351	1334.9	–	1299.9	1283.7
308.15 K	1406.6	–	1387.1	1374.1	1354.7	1335.6	1319.1	–	1283.5	1266.4
313.15 K	1394.5	1389.3	1374.4	1360.8	1340.3	1320.3	–	1283.2	1267.2	1249.2
318.15 K	1382.8	1377.1	1361.6	1347.3	–	–	1288.1	1267.3	1250.9	1231.9
323.15 K	–	1365.3	1349.2	1334.2	1312	–	1272.7	1251.5	1234.9	1215

CCCC[n+]1ccn(C)c1.F[P-](F)(F)(F)(F)F + CCCOCCO
x2 = 0
Conditions	speed of sound [m/s]
298.15 K	1443.8
308.15 K	1419.8
323.15 K	1385.6
